Test results taken from ChEMBL document CHEMBL5335843, “Application of tobramycin benzyl ether as an antibiotic adjuvant capable of sensitizing multidrug-resistant Gram-negative bacteria to rifampicin” (2024).
Activity calls are given as the source filed them. No cut-off for these calls is given here.

Tests used:
Acinetobacter baumannii [1] = assay: Antibacterial activity against multi-drug resistant Acinetobacter baumannii clinical isolate AB027 assessed as inhibition of bacterial growth incubated for 18 hrs by two fold broth microdilution assay; type: functional
Pseudomonas aeruginosa [2] = assay: Antibacterial activity against Pseudomonas aeruginosa PAO1 assessed as inhibition of bacterial growth incubated for 18 hrs by two fold broth microdilution assay; type: functional
Pseudomonas aeruginosa [3] = assay: Antibacterial activity against multi-drug resistant Pseudomonas aeruginosa clinical isolate 114228 assessed as inhibition of bacterial growth incubated for 18 hrs by two fold broth microdilution assay; type: functional
Escherichia coli [4] = assay: Antibacterial activity against multi-drug resistant Escherichia coli clinical isolate 107115 assessed as inhibition of bacterial growth incubated for 18 hrs by two fold broth microdilution assay; type: functional
Acinetobacter baumannii [5] = assay: Antibacterial activity against multi-drug resistant Acinetobacter baumannii clinical isolate 92247 assessed as inhibition of bacterial growth incubated for 18 hrs by two fold broth microdilution assay; type: functional
Pseudomonas aeruginosa [6] = assay: Antibiotic adjuvant activity against multi-drug resistant Pseudomonas aeruginosa clinical isolate PA259 assessed as rifampicin MIC incubated for 18 hrs in presence of Rifampicin by two fold broth microdilution checkerboard assay; type: functional
Escherichia coli [7] = assay: Antibiotic adjuvant activity against multi-drug resistant Escherichia coli clinical isolate 107115 assessed as rifampicin MIC incubated for 18 hrs in presence of Rifampicin by two fold broth microdilution checkerboard assay; type: functional
Acinetobacter baumannii [8] = assay: Antibiotic adjuvant activity against multi-drug resistant Acinetobacter baumannii clinical isolate 92247 assessed as rifampicin MIC incubated for 18 hrs in presence of Rifampicin by two fold broth microdilution checkerboard assay; type: functional
Pseudomonas aeruginosa [9] = assay: Antibiotic adjuvant activity against multi-drug resistant Pseudomonas aeruginosa clinical isolate 114228 assessed as inhibition of bacterial growth incubated for 18 hrs in presence of Rifampicin by two fold broth microdilution checkerboard assay; type: functional
Pseudomonas aeruginosa [10] = assay: Antibiotic adjuvant activity against multi-drug resistant Pseudomonas aeruginosa clinical isolate PA264 assessed as inhibition of bacterial growth incubated for 18 hrs in presence of Rifampicin by two fold broth microdilution checkerboard assay; type: functional
Escherichia coli [11] = assay: Antibiotic adjuvant activity against multi-drug resistant Escherichia coli clinical isolate 94393 assessed as inhibition of bacterial growth incubated for 18 hrs in presence of Rifampicin by two fold broth microdilution checkerboard assay; type: functional
Acinetobacter baumannii [12] = assay: Antibiotic adjuvant activity against multi-drug resistant Acinetobacter baumannii clinical isolate AB027 assessed as inhibition of bacterial growth incubated for 18 hrs in presence of Rifampicin by two fold broth microdilution checkerboard assay; type: functional
Pseudomonas aeruginosa [13] = assay: Antibiotic adjuvant activity against multi-drug resistant Pseudomonas aeruginosa clinical isolate PA262 assessed as fold potentiation incubated for 18 hrs in presence of Rifampicin by two fold broth microdilution checkerboard assay; type: functional
Escherichia coli [14] = assay: Antibiotic adjuvant activity against multi-drug resistant Escherichia coli clinical isolate 94393 assessed as fold potentiation incubated for 18 hrs in presence of Rifampicin by two fold broth microdilution checkerboard assay; type: functional
Acinetobacter baumannii [15] = assay: Antibiotic adjuvant activity against multi-drug resistant Acinetobacter baumannii clinical isolate 92247 assessed as fractional inhibitory concentration index incubated for 18 hrs in presence of Rifampicin by two fold broth microdilution checkerboard assay; type: functional
Pseudomonas aeruginosa [16] = assay: Antibacterial activity against multi-drug resistant Pseudomonas aeruginosa clinical isolate PA101243 assessed as inhibition of bacterial growth incubated for 18 hrs by two fold broth microdilution assay; type: functional
Escherichia coli [17] = assay: Antibacterial activity against multi-drug resistant Escherichia coli clinical isolate EC107115 assessed as inhibition of bacterial growth incubated for 18 hrs by two fold broth microdilution assay; type: functional
Escherichia coli [18] = assay: Antibacterial activity against multi-drug resistant Escherichia coli clinical isolate EC94474 assessed as inhibition of bacterial growth incubated for 18 hrs by two fold broth microdilution assay; type: functional
Pseudomonas aeruginosa [19] = assay: Antibiotic adjuvant activity against multi-drug resistant Pseudomonas aeruginosa clinical isolate PA114228 assessed as minocycline MIC incubated for 18 hrs in presence of minocycline by two fold broth microdilution checkerboard assay; type: functional
Pseudomonas aeruginosa [20] = assay: Antibiotic adjuvant activity against multi-drug resistant Pseudomonas aeruginosa clinical isolate PA262 assessed as minocycline MIC incubated for 18 hrs in presence of minocycline by two fold broth microdilution checkerboard assay; type: functional
Pseudomonas aeruginosa [21] = assay: Antibiotic adjuvant activity against multi-drug resistant Pseudomonas aeruginosa clinical isolate PA114228 assessed as inhibition of bacterial growth incubated for 18 hrs in presence of minocycline by two fold broth microdilution checkerboard assay; type: functional
Pseudomonas aeruginosa [22] = assay: Antibiotic adjuvant activity against multi-drug resistant Pseudomonas aeruginosa clinical isolate PA101243 assessed as fold potentiation incubated for 18 hrs in presence of minocycline by two fold broth microdilution checkerboard assay; type: functional
Pseudomonas aeruginosa [23] = assay: Antibiotic adjuvant activity against multi-drug resistant Pseudomonas aeruginosa clinical isolate PA114228 assessed as fold potentiation incubated for 18 hrs in presence of minocycline by two fold broth microdilution checkerboard assay; type: functional
Pseudomonas aeruginosa [24] = assay: Antibiotic adjuvant activity against multi-drug resistant Pseudomonas aeruginosa clinical isolate PA114228 assessed as fractional inhibitory concentration index incubated for 18 hrs in presence of minocycline by two fold broth microdilution checkerboard assay; type: functional
Escherichia coli [25] = assay: Antibiotic adjuvant activity against multi-drug resistant Escherichia coli clinical isolate EC107115 assessed as fractional inhibitory concentration index incubated for 18 hrs in presence of minocycline by two fold broth microdilution checkerboard assay; type: functional
Escherichia coli [26] = assay: Antibiotic adjuvant activity against multi-drug resistant Escherichia coli clinical isolate EC94474 assessed as fractional inhibitory concentration index incubated for 18 hrs in presence of minocycline by two fold broth microdilution checkerboard assay; type: functional
Pseudomonas aeruginosa [27] = assay: Antibiotic adjuvant activity against multi-drug resistant Pseudomonas aeruginosa clinical isolate PA114228 assessed as inhibition of bacterial growth incubated for 18 hrs in presence of doxycycline by two fold broth microdilution checkerboard assay; type: functional
Escherichia coli [28] = assay: Antibiotic adjuvant activity against multi-drug resistant Escherichia coli clinical isolate EC94474 assessed as inhibition of bacterial growth incubated for 18 hrs in presence of doxycycline by two fold broth microdilution checkerboard assay; type: functional
Pseudomonas aeruginosa [29] = assay: Antibiotic adjuvant activity against multi-drug resistant Pseudomonas aeruginosa clinical isolate PA101243 assessed as fold potentiation incubated for 18 hrs in presence of doxycycline by two fold broth microdilution checkerboard assay; type: functional
Escherichia coli [30] = assay: Antibiotic adjuvant activity against multi-drug resistant Escherichia coli clinical isolate EC94474 assessed as fold potentiation incubated for 18 hrs in presence of doxycycline by two fold broth microdilution checkerboard assay; type: functional
Enterococcus faecium = assay: Antibiotic adjuvant activity against Enterococcus faecium 128149 assessed as fractional inhibitory concentration index incubated for 18 hrs in presence of rifampicin by two fold broth microdilution checkerboard assay; type: functional
Escherichia coli [31] = assay: Antibiotic adjuvant activity against Escherichia coli ATCC 25922 assessed as fold potentiation incubated for 18 hrs in presence of novobiocin by two fold broth microdilution checkerboard assay; type: functional
Escherichia coli [32] = assay: Antibiotic adjuvant activity against Escherichia coli ATCC 25922 assessed as fold potentiation incubated for 18 hrs in presence of rifampicin and CAMHB Mg2+ media by two fold broth microdilution checkerboard assay; type: functional
Escherichia coli [33] = assay: Antibiotic adjuvant activity against Escherichia coli ATCC 25922 assessed as fold potentiation incubated for 18 hrs in presence of rifampicin and CAMHB Na+ media by two fold broth microdilution checkerboard assay; type: functional
Acinetobacter baumannii [34] = assay: Antibiotic adjuvant activity against Acinetobacter baumannii ATCC 17978 assessed as fold potentiation incubated for 18 hrs in presence of rifampicin by two fold broth microdilution checkerboard assay relative to FBS; type: functional
Acinetobacter baumannii [35] = assay: Antibiotic adjuvant activity against Acinetobacter baumannii ATCC 17978 at 8 to 11 ug/ml incubated for 18 hrs in presence of rifampicin and 10 % FBS media by two fold broth microdilution checkerboard assay; type: functional, organism-based; settings: dose 8-11 µg/ml

Cl.NC[C@H]1O[C@H](O[C@H]2[C@H](OCc3ccccc3)[C@@H](O[C@H]3O[C@H](COCc4ccccc4)[C@@H](OCc4ccccc4)[C@H](N)[C@H]3OCc3ccccc3)[C@H](N)C[C@@H]2N)[C@H](N)C[C@@H]1OCc1ccccc1
MIC (Acinetobacter baumannii [1]): 64 µg/mL | MIC (Pseudomonas aeruginosa [2]): 64 µg/mL | MIC (Pseudomonas aeruginosa [3]): 64 µg/mL | MIC (Escherichia coli [4]): 32 µg/mL | MIC (Acinetobacter baumannii [5]): 32 µg/mL | MIC (Pseudomonas aeruginosa [6]): 16 µg/mL | MIC (Escherichia coli [7]): 0.125 µg/mL | MIC (Acinetobacter baumannii [8]): 0.008 µg/mL | MIC (Pseudomonas aeruginosa [9]): 8 µg/mL | MIC (Pseudomonas aeruginosa [10]): 8 µg/mL | MIC (Escherichia coli [11]): 8 µg/mL | MIC (Acinetobacter baumannii [12]): 8 µg/mL | fold change (FC) (Pseudomonas aeruginosa [13]): 1 | fold change (FC) (Escherichia coli [14]): 1 | fractional inhibitory concentration index (FICI) (Acinetobacter baumannii [15]): 0.252 | MIC (Pseudomonas aeruginosa [16]): 64 µg/mL | MIC (Escherichia coli [17]): 32 µg/mL | MIC (Escherichia coli [18]): 32 µg/mL | MIC (Pseudomonas aeruginosa [19]): 128 µg/mL | MIC (Pseudomonas aeruginosa [20]): 256 µg/mL | MIC (Pseudomonas aeruginosa [21]): 8 µg/mL | fold change (FC) (Pseudomonas aeruginosa [22]): 1 | fold change (FC) (Pseudomonas aeruginosa [23]): 1 | fractional inhibitory concentration index (FICI) (Pseudomonas aeruginosa [24]): 1.063 | fractional inhibitory concentration index (FICI) (Escherichia coli [25]): 0.078 | fractional inhibitory concentration index (FICI) (Escherichia coli [26]): 0.094 | MIC (Pseudomonas aeruginosa [27]): 8 µg/mL | MIC (Escherichia coli [28]): 8 µg/mL | fold change (FC) (Pseudomonas aeruginosa [29]): 1 | fold change (FC) (Escherichia coli [30]): 8 | fractional inhibitory concentration index (FICI) (Enterococcus faecium): 1.5 | fold change (FC) (Escherichia coli [31]): 2048 | fold change (FC) (Escherichia coli [32]): 2 | fold change (FC) (Escherichia coli [33]): 512 | fold change (FC) (Acinetobacter baumannii [34]): 64 | Activity (Acinetobacter baumannii [35]): inactive
